Results from patent US20030005484A1, “Microbiocidal and pesticidal aromatic aldehydes” (ProGuard, Inc., priority 1994, published 2003).
“And” between values parts separate entries of the source, which are not always exact repeats. Equal entries are not always repeated.

Key:
[1] = test system: leafhoppers (western grape leafhopper and Virginia creeper leafhopper nymphs); assay: leafhoppers on grapevines, 1% and 2% spray; format: in vivo; settings: for mean number of leafhoppers per leaf: one day after treatment, across cultivars, control 26.53
Description: Treatment of leafhoppers (western grape leafhopper (WGL) and Virginia creeper leafhopper nymphs(VCLH)) on grapevines with cinnamic aldehyde was conducted to evaluate the protective effect of cinnamic aldehyde in different concentrations against leafhoppers on plants. A single application of 1% or 2% cinnamic aldehyde in 0.1% Tween-20 was sprayed onto the leaves of grapevines of different grape varietals (Cabernet Sauvignon, Chardonnay, Emerald Reisling and Pinot Noir) with a backpack CO2 powered sprayer at the field equivalent rate of approximately 150 gal./acre (0.5 gal. per treatment plot). Coverage on the bottom of grape leaves, where most leafhopper nymphs feed, ranged from 70%-80%. The number of leafhoppers on the leaves was counted prior to spraying and 1 day after spraying. Leafhopper numbers on grape vines were assessed by sampling 2 leaves from each of 3 grape vines per treatment (with a single vine buffer between each treatment), for which 2-3 replicates per treatment were examined. Control plants were untreated. Both concentrations of cinnamic aldehyde reduced the mean number of leafhoppers per leaf as compared to the control. The mean number of leafhoppers was defined as the sum of WGL plus VCLH per leaf.

[2] = test system: black bean aphid, Tetranychus urticae; assay: aphid Petri dish bioassay; settings: for mortality: three hours contact
Description: Activity of cinnamic aldehyde and/or coniferyl aldehyde against black bean aphid, Tetranychus urticae, and silverleaf white fly, Bemisia argentifolii was determined as follows:
Petri dishes (60 mm) were treated with cinnamic aldehyde at 10-25,000 ppm in 2% Tween 80 and 6% NaHCO3 dissolved in water, and the dishes allowed to air dry. Twenty adult aphids (Tetranychus urticae) were put in each dish, (replicate 10 times). The mortality after three hours in contact with a treated plate was compared to that of aphids in petri dishes treated only with diluent. Malathion (250 ppm) was used as a positive control.

[3] = test system: western flower thrips, Frankliniella occidentalis; assay: western flower thrips dose-mortality on miniature rose foliage; format: in vivo
Description: Dose-mortality response of CNMA formula against western flower thrips, Frankliniella occidentalis, was evaluated. Three different dose levels of the CNMA formulation were tested in comparison with a water only control. Tests were conducted using 500 ml ventilated paper cartons as experimental areas containing miniature rose foliage with approximately 30 adult F. occidentalis in each. An F. occidentalis colony (U.C. Davis, Department of Entomology) maintained on chrysanthemums and miniature rose was the source of thrips for the study. Three active ingredient dose levels (0.1, 0.3, and 1.0%) were sprayed onto the plants using a laboratory spray tower calibrated to spray the field equivalent of 113 L per acre at the desired dosage. Four replicates (4 observations per treatment) were compared for each dosage. For each test, treatment cartons received the treatment and were maintained at room temperature. […] Table 20 presents the mean mortality treatment data.

[4] = test system: Fusarium subglutinans f. sp. pini; assay: radial growth on amended potato dextrose agar; format: cell-based; settings: five days at 18° C
Description: A double-blind bioassay was undertaken using cinnamic aldehyde in various concentrations and formulations. The bioassay was based on inhibition of radial growth of Fusarium subglutinans f. sp. pini. Eight ml of formulation (concentration unknown) was pipetted into 200 ml of molten 2% potato dextrose agar (PDA) and the mixture was dispersed into five plastic petri dishes (25 ml dish). Each of four plates was inoculated at the center with an agar plug transferred from a growing PDA culture of Fusarium subglutinans f. sp. pini (isolate SL-1, UCB), while the fifth plate was left noninoculated as a control. These steps were repeated for each formulation of the cinnamic aldehyde. As a positive control, four PDA plates amended with 5 ppm benomyl were inoculated. as described; the negative control was four unamended PDA plates that were inoculated with F. subglutinans. All inoculated and non-inoculated plates were incubated at 18° C. for five days, after which colony diameters were measured.

phylloxera-biotype A = assay: greenhouse Merlot vines infested with phylloxera, leaf spray, disease rating of roots; format: in vivo, Daktulosphaira vitifoliae
Text: For greenhouse tests, one year old potted V. vinifera cultivar merlot plants were used that had been obtained from Foundation Plant Material Service, University of California, Davis. The plants were potted in 10 cm diameter pots and were infested with phylloxera 5 weeks prior to treatment. At the time of spraying with a treatment solution, plant pots were placed in a plastic bag so that chemical runoff from the leaf sprays would not drip into the soil. The plants were sprayed to runoff with a household 1 liter-capacity plastic spray bottle. Plants were allowed to air dry outside and then replaced in the greenhouse. At intervals thereafter, the roots were separated from the potting mix and total phylloxera population estimated.

pacific mites = pacific mites on Chardonnay grapevines; format: in vivo; settings: for PERCENT INHIBITION / POST-SPRAY MITES: 150 gal./acre, 4 days after spraying; for PRE-SPRAY MITES: baseline
Description: The effect of 0.3% and 0.6% cinnamic aldehyde on pacific mites on grapevine leaves was examined cinnamic aldehyde was diluted to 0.3% and 0.6% in water. Each formulation was sprayed onto a 1 acre block of Chardonnay wine grapes with a tractor-drawn 500 gal. hydraulic sprayer at 150 psi at a rate of 150 gal./acre. As a control, a 10-acre block of Chardonnay wine grapes was treated the same day as the test formulations with the conventional treatment (Omite) per label directions. The number of mites was counted the day prior to spraying and 4 days after spraying. […] In fact, both concentrations reduced the number of mites to a larger extent than the positive control, conventional treatment, Omite. The 0.6% rate nearly eliminated live mites on grapevines. […] The 0.6% was slightly beter than the 0.3 % cinnamic aldehyde with respect to powdery mildew control.

SMILES: O=C/C=C/c1ccccc1 [cinnamic aldehyde]
- mean number of leafhoppers per leaf ([1]; 1% in 0.1% Tween-20): 4.33 leafhoppers per leaf
- mean number of leafhoppers per leaf ([1]; 2% in 0.1% Tween-20): 2.13 leafhoppers per leaf
- MEAN LEAFHOPPERS/LEAF ([1]; Cabernet, 1% CNMA, control 15.33): 3.0
- MEAN LEAFHOPPERS/LEAF ([1]; Chardonnay, 2% CNMA, control 23.75): 3.83
- MEAN LEAFHOPPERS/LEAF ([1]; Emerald Reisling, 1% CNMA, control 51.12): 5.67
- MEAN LEAFHOPPERS/LEAF ([1]; Pinot Noir, 2% CNMA, control 19.44): 1.0
- mortality ([2]; 10 ppm in 2% Tween 80 and 6% NaHCO3): 25%
- mortality ([2]; 100 ppm in 2% Tween 80 and 6% NaHCO3): 50%
- aphids killed ([2]; 2500 ppm and above in 2% Tween 80 and 6% NaHCO3, three hours contact with treated dish): 100%
- Mean Thrip Mortality ([3]; 0.1% CNMA (C), sampling time 1615): 0.13
- Mean Thrip Mortality ([3]; 0.1% CNMA (C), sampling time 1645): 0.17
- Mean Thrip Mortality ([3]; 0.1% CNMA (C), sampling time 1715): 0.17
- Mean Thrip Mortality ([3]; 0.1% CNMA (C), sampling time 1845): 0.19
- Mean Thrip Mortality ([3]; 0.1% CNMA (C), sampling time 2215): 0.25
- Mean Thrip Mortality ([3]; 0.3% CNMA (B), sampling time 1615): 0.26
- Mean Thrip Mortality ([3]; 0.3% CNMA (B), sampling time 1645): 0.28
- Mean Thrip Mortality ([3]; 0.3% CNMA (B), sampling time 1715): 0.28
- Mean Thrip Mortality ([3]; 0.3% CNMA (B), sampling time 1845): 0.37
- Mean Thrip Mortality ([3]; 0.3% CNMA (B), sampling time 2215): 0.40
- Mean Thrip Mortality ([3]; 1.0% CNMA (A), sampling time 1615): 0.79
- Mean Thrip Mortality ([3]; 1.0% CNMA (A), sampling time 1645): 0.82
- Mean Thrip Mortality ([3]; 1.0% CNMA (A), sampling time 1715): 0.78
- Mean Thrip Mortality ([3]; 1.0% CNMA (A), sampling time 1845): 0.84
- Mean Thrip Mortality ([3]; 1.0% CNMA (A), sampling time 2215): 0.84
- Colony diameter (cm) ([4]; 10 ppm CNMA (with saponin: 0.86 ml Yucca extract 10° BRIX)): 4.36 cm
- Colony diameter (cm) ([4]; 10 ppm CNMA (with saponin: 0.86 ml Yucca extract 10° BRIX), listed as CNMA): 4.363 cm
- Colony diameter (cm) ([4]; 100 ppm CNMA (with saponin: 0.86 ml)): 4.238 cm
- Colony diameter (cm) ([4]; 100 ppm CNMA (with saponin: 0.86 ml), listed as PGXL CNMA): 4.24 cm
- Colony diameter (cm) ([4]; 2,500 ppm CNMA (with saponin: 0.86 ml)): 3.513 cm
- Colony diameter (cm) ([4]; 2,500 ppm CNMA (with saponin: 0.86 ml), listed as PGXL CNMA): 3.51 cm
- Colony diameter (cm) ([4]; 5,000 ppm CNMA (with saponin: 0.86 ml)): 2.908 cm
- Colony diameter (cm) ([4]; 5,000 ppm CNMA (with saponin: 0.86 ml), listed as PGXL CNMA): 2.91 cm
- Colony diameter (cm) ([4]; 12,500 ppm CNMA (with saponin: 0.86 ml)): 0.000 cm
- Colony diameter (cm) ([4]; 12,500 ppm CNMA (with saponin: 0.86 ml), listed as PGXL CNMA): 0 cm
- Colony diameter (cm) ([4]; 25,000 ppm CNMA (with saponin: 0.86 ml)): 0.000 cm
- Colony diameter (cm) ([4]; 25,000 ppm CNMA (with saponin: 0.86 ml), listed as PGXL CNMA): 0 cm
- Average disease rating (0-4) (phylloxera-biotype A; CNMA 10,000 ppm in 6% NaHCO3 and 2% Tween-80, leaves to run-off, week 1 (7 day evaluation)): 0^2(3)^3 and 0
- Average disease rating (0-4) (phylloxera-biotype A; Experiment 2, 2500 ppm CNMA leaf treatment, 1 day post treatment): 4 (3)
- Average disease rating (0-4) (phylloxera-biotype A; Experiment 2, 2500 ppm CNMA leaf treatment, 2 days post treatment): 0.3(3)
- Average disease rating (0-4) (phylloxera-biotype A; Experiment 2, 2500 ppm CNMA leaf treatment, 7 days post treatment): 0.3(3)
- insects on roots after leaf spray (phylloxera-biotype A; one-year-old greenhouse Merlot vines sprayed to run-off, after two weeks): disappeared
- PERCENT INHIBITION (pacific mites; 0.3% CNMA in water): 89%
- POST-SPRAY MITES (pacific mites; 0.3% CNMA in water): 4.5
- PERCENT INHIBITION (pacific mites; 0.6% CNMA in water): 98%
- POST-SPRAY MITES (pacific mites; 0.6% CNMA in water): 0.5
- PRE-SPRAY MITES (pacific mites; day prior to spraying 0.3% CNMA): 41.4
- PRE-SPRAY MITES (pacific mites; day prior to spraying 0.6% CNMA): 32.5
